These results are taken from PMC12389170, “N-Degron-Based PROTAC Targeting PLK1: A Potential Therapeutic Strategy for Cervical Cancer” (Pharmaceutics, 2025).

Non-standard residues stand in square brackets, D forms with d. Residues, ends and D or L forms follow the SMILES beside them. No end group written: not given here. *: point of attachment. n‑octylphenyl = n-octylphenyl group on the histidine (alkylphenyl side chain at His); His(π-(CH2)8Ph) = N[C@@H](Cc1cncn1CCCCCCCCc1ccccc1)C(=O)O; pT = C[C@@H](OP(=O)(O)O)[C@H](N)C(=O)O; Cbz = O=C(OCc1ccccc1)*; Ahx = NCCCCCC(=O)O

One series addresses T1, PLK1 (Homo sapiens, UniProt P53350).
T1 construct: cells were lysed and total proteins were extracted for immunoblot analysis of PLK1 expression; endogenous in cells; host or cells: HeLa
Nature of the series: PLK1 protein degradation in HeLa cells by immunoblotting. It is filed as cell-based. As to conditions: NC1 24 h, 5 µM MG132 for 8 h. Here is the method:
HeLa cells were seeded in 12-well plates with 1 × 10^5 cells per well and allowed to stay for overnight. Various concentrations (0, 1, 2, 3, 4, and 5 µM) of NC1 were added to HeLa cells in 12-well plates and incubated for 24 h. An amount of 5 µM of MG132 was added to the cells and incubated for 8 h to evaluate the proteasome inhibition. before harvesting. Following treatment, cells were lysed and total proteins were extracted for immunoblot analysis of PLK1 expression. Protein samples were separated by SDS-PAGE and transferred onto PVDF membranes. PLK1 was detected using a mouse-derived monoclonal antibody, with β-actin used as an internal control to ensure equal loading.
Background: In western blotting, separated proteins are transferred to a membrane and probed.

In series [1] the test system is HeLa xenograft cervical cancer. Nature of the series: In vivo antitumor activity, HeLa xenograft mouse model. As to conditions: nude mice, 4 mg/kg tail vein every 3-4 d for 29 d, n = 4. Here is the method:
The antitumor efficacy of NC1 was assessed in a HeLa xenograft mouse model, as reported. Briefly, 5 × 10^6 HeLa cells were subcutaneously injected into the right thigh region of immunodeficient nude mice. When tumors reached an approximate volume of 100 mm^3 (calculated using the formula: volume = 0.52 × length × width^2), mice were randomly assigned to treatment groups. NC1 (4 mg/kg) or PBS (vehicle control) was administered via tail vein injection at intervals of 3–4 days over a period of 29 days. Tumor volumes were measured regularly using calipers. All animal procedures were approved by the KBSI Institutional Animal Care and Use Committee (Protocol No. KBSI-IACUC-24-15) and were conducted in accordance with institutional and governmental regulations.

In series [2] the test system is HeLa cells.
Another series has as its target T2, PLK1 PBD (Mus musculus, UniProt Q07832).
T2 construct: (Swiss Prot entry Q07832, residues 367–603); 6XHis (N); TEV protease cleavage site (N); made in house; pET28a vector and IPTG induction point to E. coli (inferred)
Nature of the series: Isothermal titration calorimetry (ITC) of PLK1 PBD with NC1. The note with it: 25 °C, PLK1 PBD 20 µM in cell, NC1 200 µM in syringe, 20 mM HEPES pH 7.5, 200 mM NaCl, 5% DMSO, one-site model, read-out: Kd, binding affinity between NC1 and PLK1 PBD. Here is the method:
The mouse PLK1 in Polo box domain (PBD) (Swiss Prot entry Q07832, residues 367–603) was expressed as a recombinant protein containing an N-terminal 6XHis tag in the pET28a vector and a tobacco etch virus (TEV) protease cleavage was engineered between the affinity tag and PLK1 PBD. PLK1 PBD protein expression was induced by adding 0.1 mM IPTG and incubating the cells overnight at 18 °C. Following induction, the cells were collected by centrifugation and lysed via sonication after being resuspended in buffer composed of 20 mM HEPES (pH 7.5), 200 mM NaCl, 2 mM β-mercaptoethanol, and 1 mM PMSF. The lysate was clarified by centrifugation at 18,000 rpm for 40 min at 4 °C. The resulting supernatant was subjected to immobilized metal affinity chromatography (IMAC) using a Ni^2+-NTA HiTrap column (GE Healthcare), and the protein was eluted using an imidazole gradient ranging from 25 to 500 mM. For further purification, size-exclusion chromatography was conducted on a HiLoad 26/60 Superdex-75 column equilibrated with 20 mM HEPES (pH 7.2), 150 mM NaCl, and 2 mM DTT. PLK1 PBD protein was purified the purity of the proteins at each stage was checked on 15% SDS-PAGE. The purified PLK1 PBD protein was concentrated to 10 mg/mL using a VIVASPIN20 (Sartorius, Göttingen, Germany) concentrator and stored at −80 °C until use. […]
Background: ITC needs no label: the signal is the heat of the interaction.

The next series deals with cervical carcinoma. As to conditions: advanced or recurrent cervical carcinoma, limited owing to chemoresistance; cited from earlier work. The source says: According to the WHO, cervical cancer was the fourth most common cancer among women globally in 2022, with an estimated 660,000 new cases. Cervical cancer remains a considerable health threat, with 94% of the 350,000 deaths occurring in low- and middle-income countries. Chemotherapy, particularly cisplatin, is the primary treatment for advanced or recurrent cervical carcinoma. However, the response rate is limited to approximately 23% owing to chemoresistance. In addition, carboplatin, another platinum-based chemotherapy, is often used as an alternative for patients intolerant to c ...

The subject of series [3] is HeLa cells. Nature of the series: G2/M phase cell cycle arrest by flow cytometry (PI). As to conditions: 6 µM, 24 h. Format: cell-based. Here is the method:
HeLa cells (3.5 × 10^5 cells/well) were seeded into 6-well plates and grown to 80–90% confluence. […] Both medium and floating cells were collected, washed with PBS three times, and fixed in 70% cold ethanol. Further, cells were washed again with PBS and stained with a solution containing PI (1 µg/mL) and RNase A (1 µg/mL) at 37 °C for 30 min. The stained cells were analyzed using a CytoFLEX flow cytometer (Beckman Coulter, Brea, CA, USA), and data were processed with FlowJo v10.10 [10].
(A flow cytometer gives signals particle by particle.)

Series [4] relates to HeLa cells. Nature of the series: Morphological assessment by phase contrast microscopy. It is filed as cell-based. The note with it: 6 µM, 30 h.
Series [5] deals with HeLa cells. Nature of the series: Fluorescence apoptosis assay (LIVE/DEAD kit). Format: cell-based. As to conditions: 6 µM, 24 h, LIVE/DEAD staining.
Series [6] has as its target T3, NC1 (Arg12-Ahx-PLH(n-octylphenyl)SpT PROTAC peptide) (synthetic construct).
T3 chain: RRRRRRRRRRRR[Ahx]PLH(n‑octylphenyl)S[pT]-NH2
In words: ITC.

T1 sequence (P53350 whole entry): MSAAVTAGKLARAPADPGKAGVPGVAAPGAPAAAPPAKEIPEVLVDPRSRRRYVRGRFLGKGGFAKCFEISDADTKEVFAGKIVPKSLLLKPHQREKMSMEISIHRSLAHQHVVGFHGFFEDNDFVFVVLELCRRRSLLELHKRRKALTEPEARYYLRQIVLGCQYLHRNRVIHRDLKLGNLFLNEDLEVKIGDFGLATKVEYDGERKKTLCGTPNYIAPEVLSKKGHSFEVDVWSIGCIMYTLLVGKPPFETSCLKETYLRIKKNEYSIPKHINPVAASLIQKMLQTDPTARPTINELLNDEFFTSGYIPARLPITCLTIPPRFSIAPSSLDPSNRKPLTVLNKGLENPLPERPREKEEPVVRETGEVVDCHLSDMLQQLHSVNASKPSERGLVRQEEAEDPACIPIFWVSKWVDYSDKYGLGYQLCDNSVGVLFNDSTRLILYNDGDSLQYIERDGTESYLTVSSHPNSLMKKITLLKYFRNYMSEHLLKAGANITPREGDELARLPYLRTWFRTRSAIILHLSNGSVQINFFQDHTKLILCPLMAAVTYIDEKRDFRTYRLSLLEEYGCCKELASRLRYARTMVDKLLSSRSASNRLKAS

Take `CC(C)C[C@@H](C=O)NC(=O)[C@H](CC(C)C)NC(=O)[C@H](CC(C)C)NC(=O)OCc1ccccc1` [MG132] (Cbz-Leu-Leu-Leu-aldehyde): the “Effect of proteasome inhibitor co-treatment on NC1-induced PLK1 degradation” value on PLK1 is on record as “significantly reduced degradation”.

As for `CC(C)C[C@H](NC(=O)[C@@H]1CCCN1C(=O)CCCCCNC(=O)[C@H](CCCNC(=N)N)NC(=O)[C@H](CCCNC(=N)N)NC(=O)[C@H](CCCNC(=N)N)NC(=O)[C@H](CCCNC(=N)N)NC(=O)[C@H](CCCNC(=N)N)NC(=O)[C@H](CCCNC(=N)N)NC(=O)[C@H](CCCNC(=N)N)NC(=O)[C@H](CCCNC(=N)N)NC(=O)[C@H](CCCNC(=N)N)NC(=O)[C@H](CCCNC(=N)N)NC(=O)[C@H](CCCNC(=N)N)NC(=O)[C@@H](N)CCCNC(=N)N)C(=O)N[C@@H](Cc1cncn1CCCCCCCCc1ccccc1)C(=O)N[C@@H](CO)C(=O)N[C@H](C(N)=O)[C@@H](C)OP(=O)(O)O` [NC1] (H-RRRRRRRRRRRR[Ahx]PL[His(π-(CH2)8Ph)]S[pT]-NH2), the “Body weight of tumor-bearing mice” value in [1] is reported as “remained constant”. The IC50 (usually the concentration at which inhibition is half-maximal) in the series on HeLa cells [2] (read-out: IC50 for cancer cell viability, MTT, 24 h) stood at 5.23 µM. Moreover, on PLK1 PBD, the Kd – broadly, the concentration at which binding is half-saturated – came out at 6.06 µM.

In the case of `N.N.[Cl][Pt][Cl]` [cisplatin], the Response rate entry in the series with cervical carcinoma is “approximately 23%”.

For PLH(n-octylphenyl)SpT [4j], the “Effect on cell viability” value with HeLa cells [2] (MTT, 24 h, up to 12 µM) is reported as “did not significantly affect cell viability”. Besides, in the series with HeLa cells [3], the G1 cell population was 75.88, the G2/M cell population worked out at 14.68, the “Increase in G2/M cell population compared with the control” value is 2.38% and the S cell population turned out to be 5.47. Further, the SubG1 cell population in the series on HeLa cells [3] worked out at 3.97. In addition, the “Morphological changes of HeLa cells” value with HeLa cells [4] is “did not induce notable morphological changes”. Moreover, the “Apoptotic (dead, red) cells in fluorescence images” value in the series on HeLa cells [5] was “few apoptotic red cells”.

B1: PLK1 367-603 (protein)
chain: NEAIECHLSDLLQQLTSVNASKPSERGLVRQEEAEDPACIPIFWVSKWVDYSDKYGLGYQLCDNSVGVLFNDSTRLILYNDGDSLQYIERDGTESYLTVSSHPNSLMKKITLLNYFRNYMSEHLLKAGANITPREGDELARLPYLRTWFRTRSAIILHLSNGTVQINFFQDHTKLILCPLMAAVTYINEKRDFQTYRLSLLEEYGCCKELASRLRYARTMVDKLLSSRSASNRLKAS
For the molecule B1, binding in series [6] was put at a Kd of 6.06 µM.
